In patent publication US9334265B2, “3-amino-pyrazole derivatives useful against tuberculosis” (GLAXO GROUP LIMITED, priority 2010, dated 2016):
Like-named read-outs stand apart in the source and are kept apart here.

Columns and labels:
[1] = system: Mycobacterium tuberculosis H37Rv; test: Mycobacterium tuberculosis H37Rv Inhibition Assay (Whole Cell Assay); assay type: cell-based; settings: ATCC 25618 / H37Rv, H37Rv strain (ATCC25618), Middlebrook 7H9, six days at 37° C., resazurin fluorescence after 48 hours
InhA = biological target: T1, InhA (Mycobacterium tuberculosis, UniProt P9WGR1); test: Mycobacterium tuberculosis InhA Inhibition Assay (Enzyme Assay); assay type: biochemical; settings: 5 nM InhA, 50 μM DDCoA, 50 μM NADH, PIPES buffer pH 6.8, initial velocities of NADH consumption
T1 construct: made in house; host or cells: E. coli
Description: InhA is able to reduce 2-trans enoyl-CoA esters with concomitant oxidation of NADH to NAD^+. The assay format is based on the kinetic detection of NADH consumption.
Assay for InhA inhibition is carried out with mycobacterium recombinant protein expressed and purified form E. coli. Standard assay conditions for the determination of kinetic constants and inhibitors activity use 5 nM of InhA, 50 μM of Dodecenoyl-CoA synthesized and purified as described by Quémard et al (DDCoA) and 50 μM of NADH as substrates, and it is carried out in 30 mM PIPES buffer pH 6.8, containing 0.05% of BSA. […] Triclosan is used as positive control in every experiment. One μl of compounds is added to the wells containing 25 μl of the DDCoA+NADH mix, the reaction is started by adding 50 μl of the enzyme solution. Fluorescence from NADH is followed at room temperature during 20 minutes in a fluorescent plate reader (excitation at 340 nm; emission at 480 nm). IC50 values are determined using initial velocities of NADH consumption. • Quémard A, Sacchettini J C, Dessen A, et al. Enzymatic characterization of the target for isoniazid in Mycobacterium tuberculosis. Biochemistry 1995; 34:8235-41. Results of the Mycobacterium tuberculosis InhA Inhibition Assay (Enzyme Assay)

T1 sequence (P9WGR1 whole entry, looked up): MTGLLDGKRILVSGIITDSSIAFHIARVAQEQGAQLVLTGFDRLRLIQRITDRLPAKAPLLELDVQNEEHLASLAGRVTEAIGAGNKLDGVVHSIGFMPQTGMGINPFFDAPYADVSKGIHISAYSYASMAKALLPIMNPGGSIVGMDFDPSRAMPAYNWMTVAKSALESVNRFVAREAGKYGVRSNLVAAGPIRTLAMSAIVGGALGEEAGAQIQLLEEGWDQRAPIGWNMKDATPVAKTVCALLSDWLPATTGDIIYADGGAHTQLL

SMILES	MIC [1]	IC50 (InhA; IC50 value)	IC50 (InhA; read-out: IC50 value)
Cc1csc([C@](C)(O)c2nnc(Nc3ccn(Cc4ncccc4F)n3)s2)n1 (single isomer, unassigned) [Example 41]	≤ 1 µM	≤ 120 nM	
Cc1ccn(C(C)c2nnc(Nc3ccn(Cc4ncccc4F)n3)s2)n1 (racemic) [Example 13, N-{1-[(3-fluoro-2-pyridinyl)methyl]-1H-pyrazol-3-yl}-5-[1-(3-methyl-1H-pyrazol-1-yl)ethyl]-1,3,4-thiadiazol-2-amine]	≤ 4 µM		≤ 130 nM
Cc1cc(C)n(C(C)c2nnc(Nc3ccn(C(C)c4ncccc4F)n3)s2)n1 (stereo not drawn) [Example 35, 5-[1-(3,5-dimethyl-1H-pyrazol-1-yl)ethyl]-N-{1-[1-(3-fluoro-2-pyridinyl)ethyl]-1H-pyrazol-3-yl}-1,3,4-thiadiazol-2-amine]	> 10 µM		≤ 121 nM
Cc1csc(C(C)(O)c2nnc(Nc3ccn(Cc4c(C)noc4C)n3)s2)n1 (stereo not drawn) [Example 26, 1-[5-({1-[(3,5-dimethyl-4-isoxazolyl)methyl]-1H-pyrazol-3-yl}amino)-1,3,4-thiadiazol-2-yl]-1-(4-methyl-1,3-thiazol-2-yl)ethanol]	> 10 µM	> 1200 nM	
Cc1cc(C)n(C(C)c2nnc(Nc3ccn(Cc4ncccc4F)n3)s2)n1 (stereo not drawn) [Example 6, 5-[1-(3,5-dimethyl-1H-pyrazol-1-yl)ethyl]-N-{1-[(3-fluoro-2-pyridinyl)methyl]-1H-pyrazol-3-yl}-1,3,4-thiadiazol-2-amine]	≤ 4 µM		≤ 125 nM
Cc1ccn(C(C)c2nnc(Nc3ccn(Cc4cccnc4F)n3)s2)n1 (stereo not drawn) [Example 10, N-{1-[(2-fluoro-3-pyridinyl)methyl]-1H-pyrazol-3-yl}-5-[1-(3-methyl-1H-pyrazol-1-yl)ethyl]-1,3,4-thiadiazol-2-amine]	> 10 µM	130 to 260 nM	
Cc1csc(C(C)(O)c2nnc(Nc3cc(C)n(Cc4ncccc4F)n3)s2)n1 (stereo not drawn) [Example 28, 1-[5-({1-[(3-fluoro-2-pyridinyl)methyl]-5-methyl-1H-pyrazol-3-yl}amino)-1,3,4-thiadiazol-2-yl]-1-(4-methyl-1,3-thiazol-2-yl)ethanol]	≤ 4 µM	≤ 116 nM	
Cc1csc(C(C)(O)c2nnc(Nc3ccn(Cc4ccc5ccccc5n4)n3)s2)n1 (stereo not drawn) [Example 15, 1-(4-methyl-1,3-thiazol-2-yl)-1-(5-{[1-(2-quinolinylmethyl)-1H-pyrazol-3-yl]amino}-1,3,4-thiadiazol-2-yl)ethanol]	≤ 4 µM		≤ 111 nM
Cc1cc(C)n(C(C)c2nnc(Nc3ccn(Cc4cnc(C)c(Cl)c4)n3)s2)n1 (stereo not drawn) [Example 8, N-{1-[(5-chloro-6-methyl-3-pyridinyl)methyl]-1H-pyrazol-3-yl}-5-[1-(3,5-dimethyl-1H-pyrazol-1-yl)ethyl]-1,3,4-thiadiazol-2-amine]	> 10 µM		≤ 117 nM
Cc1csc(C(C)(O)c2nnc(Nc3ccn(Cc4ncccc4F)n3)s2)n1 (racemic) [Example 38, 1-[5-({1-[(3-fluoro-2-pyridinyl)methyl]-1H-pyrazol-3-yl}amino)-1,3,4-thiadiazol-2-yl]-1-(4-methyl-1,3-thiazol-2-yl)ethanol]	≤ 1 µM		≤ 120 nM
CCOc1cccc(Cn2ccc(Nc3nnc(C(C)n4nc(C)cc4C)s3)n2)n1 (stereo not drawn) [Example 36, 5-[1-(3,5-dimethyl-1H-pyrazol-1-yl)ethyl]-N-(1-{[6-(ethyloxy)-2-pyridinyl]methyl}-1H-pyrazol-3-yl)-1,3,4-thiadiazol-2-amine]	> 10 µM		≤ 118 nM
CCOc1cnc(Cn2ccc(Nc3nnc(C(C)(O)c4nc(C)cs4)s3)n2)c(F)c1 (stereo not drawn) [Example 30, 1-{5-[(1-{[5-(ethyloxy)-3-fluoro-2-pyridinyl]methyl}-1H-pyrazol-3-yl)amino]-1,3,4-thiadiazol-2-yl}-1-(4-methyl-1,3-thiazol-2-yl)ethanol]	> 10 µM	217 to 1080 nM	
